Reference: US20150258197A1, “EUTECTIC ISOMETHEPTENE MUCATE” (TONIX PHARMA HOLDINGS LIMITED, priority 2014, published 2015)

Assays:
Format in all cases: physicochemical
[1] = DSC/XRPD of 75:25 mixtures of (R)-isometheptene salts and β-mannitol; settings: for Physical interaction with β-mannitol: 75:25 salt:mannitol, dry-granulated or wet-granulated, DSC confirmed by XRPD; for Eutectic formation with mannitol: (R)-isometheptene salts other than mucate, 75:25 with β-mannitol
Description: Thermal analytical techniques were used to analyze mixtures of several (R)-isometheptene salts and β-mannitol in a ratio of 75:25. (R)-isometheptene salts tested were as follows: (R)-isometheptene maleate, (R)-isometheptene malate, and (R)-isometheptene tartrate. Based on the thermal events recorded for each component and for the mixtures, the analyses were carried out by investigating the peaks recorded by differential scanning calorimetry (DSC) in mixture between (R)-isometheptene mucate and the excipients. Differences in thermal profiles between the single compound and the related mixture were evaluated.
Aliquots of (R)-isometheptene salts and each excipient were weighed in a ratio of 1:1 (unless specified otherwise) and ground in an agate mortar with (wet-granulation) or without (dry-granulation) a small amount of water. The homogeneous mixtures then were analyzed.
(§1) The DSC heating curves were obtained with a TA 821 DSC Mettler instrument under the following conditions:
(§2) Heating rate: 10° C./min Ambient: Nitrogen 30 mL/min Sample holder: normal open aluminum pan Temperature range: from 25° C. to 250° C. Instrument calibration: Indium sample purity 99.999%
(§3) X-ray powder diffraction (XRPD) tests were performed with the ULTIMA IV instrument (Rigaku), laying the sample on a static sample holder. The X-ray focusing slit has a variable width, interlocked with the q value. The X-ray tube has a copper target, with a current intensity of 40 mA and a voltage of 40 kV. Radiation was generated by the Cockcroft-Walton method, and was constituted by Kα1 (1.540562 Å) and Kα2 (1.544398 Å). The analytical conditions were:
(§4) Fixed Time; sampling width 0.02 deg, scanning rate 1.3 s/step, 2 q range 3.35 deg and sample holder; amorphous glass equiangular 9200/2G, 0.2 mm deep. The sample was pressed with a glass plate.

[2] = Excipient compatibility of racemic isometheptene mucate by DSC/XRPD (1:1 mixtures); settings: 1:1 weight ratio, ground in agate mortar, DSC (XRPD for mannitol)
Description: (§5) Thermal analytical techniques were used to assess the compatibility of a drug product containing racemic isometheptene mucate. The compatibility assessment was carried out between the racemic isometheptene mucate and a number of possible excipients in a 1:1 weight ratio. Based on the thermal events recorded for each component and for the mixtures, the analyses were carried out by investigating the peaks recorded by differential scanning calorimetry (DSC) in mixture between racemic isometheptene mucate and the excipients. Differences in thermal profiles between the single compound and the related mixture obtained after milling the products in an agate mortar were evaluated.
Aliquots of racemic isometheptene mucate and each excipient were weighed in a ratio of 1:1 (unless specified otherwise) and ground in an agate mortar. The homogeneous mixtures then were analyzed.
as §1, §2
as §3, with “K+1” for “Kα1”
as §4

[3] = DSC/XRPD of binary mixtures of isometheptene mucate and mannitol (eutectic formation); settings: binary mixtures at different ratios
Description: Because mannitol is a common excipient in solid drug formulations, it was examined for compatibility with racemic isometheptene mucate and investigated using DSC and the interactions occurring were assessed. […] To confirm the formation of a eutectic and to characterize its physical properties, several binary mixtures at different ratios of racemic isometheptene mucate and excipient were prepared and analyzed by DSC and by XRPD. The eutectic formation improved the cohesion between the racemic isometheptene mucate and excipient particles and assured better physical linking between the two.
In order to confirm the eutectic formation and to characterize its physical properties, several binary mixtures at different ratios of racemic isometheptene mucate-excipient were prepared and analyzed by DSC and by X-ray powder diffraction (XRPD). […] For each DSC heating curve, the onset temperature and the enthalpy were evaluated both for the eutectic contribute and for the excess of component. The recorded values were plotted and a phase diagram between the two components was obtained with a characteristic profile of phase diagrams of eutectic mixtures. […]
Aliquots of racemic isometheptene mucate API and mannitol were weighed in the ratios described below and ground in an agate mortar, and the homogeneous mixtures subsequently analyzed. […]

[4] = Excipient compatibility of (R)-isometheptene mucate by DSC/XRPD (1:1 mixtures); settings: 1:1 weight ratio, ground in agate mortar, DSC
Description: as §5, with “mucate (API).” for “mucate.”
Aliquots of (R)-isometheptene mucate and each excipient were weighed in a ratio of 1:1 (unless specified otherwise) and ground in an agate mortar. The homogeneous mixtures then were analyzed.
as §1, §2, §3, §4

| Physical interaction with β-mannitol [1] | Eutectic formation with mannitol [1] | Excipient reactions with API (racemic isometheptene mucate), Mixture 1:1 [2] | Excipient reactions with (R)-isometheptene mucate, Mixture 1:1 [4] | Molecule | other results |
| --- | --- | --- | --- | --- | --- |
| No physical interaction was observed | do not form a eutectic composition |  |  | CN[C@H](C)CCC=C(C)C.O=C(O)CC(O)C(=O)O [(R)-isometheptene malate] |  |
|  |  | Physical interaction (complex) |  | OC[C@@H](O)[C@@H](O)[C@H](O)[C@H](O)CO [Mannitol] | Excipient reactions with API (racemic isometheptene mucate), Mixture 1:1 ([2]; listed as mannitol): Physical interaction was observed |
| No physical interaction was observed | do not form a eutectic composition |  |  | CN[C@H](C)CCC=C(C)C.O=C(O)C(O)C(O)C(=O)O [(R)-isometheptene tartrate] |  |
|  |  |  |  | CNC(C)CCC=C(C)C.CNC(C)CCC=C(C)C.O=C(O)[C@@H](O)[C@H](O)[C@H](O)[C@@H](O)C(=O)O (racemic) [racemic isometheptene mucate, reference compound] | Interaction with mannitol (eutectic vs adduct) [3]: only a physical eutectic formation |
|  |  | No interaction reported | No interaction reported | Isomalt |  |
|  |  |  | Physical interaction (complex) | OC[C@@H](O)[C@@H](O)[C@H](O)[C@H](O)CO [Mannitol SD200] | Excipient reactions with (R)-isometheptene mucate, Mixture 1:1 ([4]; listed as mannitol SD200): Physical interaction was observed; Excipient reactions with API (racemic isometheptene mucate), Mixture 1:1 ([2]; listed as mannitol SD200): Physical interaction was observed |
|  |  | YES |  | CCCCCCCCCCCCCCCCCC(=O)O [Stearic acid] | Excipient reactions with API (racemic isometheptene mucate), Mixture 1:1 ([2]; listed as stearic acid): physical interaction was observed |
| No physical interaction was observed | do not form a eutectic composition |  |  | CN[C@H](C)CCC=C(C)C.O=C(O)/C=C\C(=O)O [(R)-isometheptene maleate] |  |

| Molecule | Physical interaction with β-mannitol [1] | Eutectic formation with mannitol [1] | Excipient reactions with API (racemic isometheptene mucate), Mixture 1:1 [2] | Excipient reactions with (R)-isometheptene mucate, Mixture 1:1 [4] | other results |
| --- | --- | --- | --- | --- | --- |
| Magnesium stearate |  |  | YES | YES | Excipient reactions with (R)-isometheptene mucate, Mixture 1:1 ([4]; listed as magnesium stearate): small physical interaction was observed; Excipient reactions with API (racemic isometheptene mucate), Mixture 1:1 ([2]; listed as magnesium stearate): small physical interaction was observed |
